Reference: PubChem BioAssay (NCI)
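The compound was tested at five concentrations on cells cultured in 96-well plates, with a 48-hour exposure period. At the GI50, growth is halved. TGI is the concentration that stops growth completely.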

Key:
Test in all cases: NCI-60 cell line screen, 48 h
SK-MEL-28 melanoma = system: SK-MEL-28 melanoma
K-562 leukemia = system: K-562 leukemia
MOLT-4 leukemia = system: MOLT-4 leukemia
NCI/ADR-RES ovarian = system: NCI/ADR-RES ovarian
UO-31 renal = system: UO-31 renal
CAKI-1 renal = system: CAKI-1 renal
MDA-MB-231 breast = system: MDA-MB-231 breast
OVCAR-3 ovarian = system: OVCAR-3 ovarian

## Nc1nc2c(c(=O)[nH]1)N=C(COP(=O)(O)OP(=O)(O)O)CN2
SK-MEL-28 melanoma
  TGI: > 100 µM
K-562 leukemia
  TGI: > 100 µM
MOLT-4 leukemia
  TGI: > 100 µM
NCI/ADR-RES ovarian
  TGI: > 100 µM
UO-31 renal
  TGI: > 100 µM
CAKI-1 renal
  TGI: > 100 µM
MDA-MB-231 breast
  TGI: > 100 µM

## CC(=O)Nc1c(I)c(C(=O)O)c(I)c(N(C)C(C)=O)c1I
SK-MEL-28 melanoma
  GI50: > 100 µM
  TGI: > 100 µM
OVCAR-3 ovarian
  GI50: > 100 µM
  TGI: > 100 µM
K-562 leukemia
  GI50: > 100 µM
  TGI: > 100 µM
MOLT-4 leukemia
  GI50: > 100 µM
  TGI: > 100 µM
NCI/ADR-RES ovarian
  GI50: > 100 µM
  TGI: > 100 µM
UO-31 renal
  GI50: > 100 µM
  TGI: > 100 µM
CAKI-1 renal
  GI50: > 100 µM
  TGI: > 100 µM
MDA-MB-231 breast
  GI50: > 100 µM
  TGI: > 100 µM

## Cc1ccn2c(-c3csc(Nc4cccc(O)c4)n3)c(C)nc2c1
SK-MEL-28 melanoma
  GI50: 1.51 µM
  TGI: 36.3 µM
OVCAR-3 ovarian
  GI50: 0.32 µM
  TGI: 0.914 µM
K-562 leukemia
  GI50: 0.196 µM
  TGI: > 38.2 µM
MOLT-4 leukemia
  GI50: 0.591 µM
  TGI: 27.9 µM
NCI/ADR-RES ovarian
  GI50: 0.957 µM
  TGI: > 45.1 µM
UO-31 renal
  GI50: 0.977 µM
  TGI: 16.6 µM
CAKI-1 renal
  GI50: 1.21 µM
  TGI: 21.2 µM
MDA-MB-231 breast
  GI50: 0.751 µM
  TGI: 11.6 µM

## Cc1cc(C(=O)N2CCN(C)CC2)c2c(=O)n(-c3ccccc3)c(=O)n(CC(O)CN3CCN(c4ncccn4)CC3)c2n1 (centres undefined)
SK-MEL-28 melanoma
  GI50: > 100 µM
  TGI: > 100 µM
OVCAR-3 ovarian
  GI50: > 100 µM
  TGI: > 100 µM
K-562 leukemia
  GI50: > 100 µM
  TGI: > 100 µM
MOLT-4 leukemia
  GI50: > 100 µM
  TGI: > 100 µM
NCI/ADR-RES ovarian
  GI50: > 100 µM
  TGI: > 100 µM
UO-31 renal
  GI50: > 100 µM
  TGI: > 100 µM
CAKI-1 renal
  GI50: > 100 µM
  TGI: > 100 µM
MDA-MB-231 breast
  GI50: > 100 µM
  TGI: > 100 µM

## O=C(NCCSSCCNC(=O)/C(Cc1ccc(O)c(Br)c1)=N/O)/C(Cc1ccc(O)c(Br)c1)=N/O
SK-MEL-28 melanoma
  TGI: 16.3 µM
OVCAR-3 ovarian
  TGI: 6.06 µM
K-562 leukemia
  TGI: > 50 µM
MOLT-4 leukemia
  TGI: 8.58 µM
NCI/ADR-RES ovarian
  TGI: 7.97 µM
UO-31 renal
  TGI: 8.58 µM
CAKI-1 renal
  TGI: 5.32 µM
MDA-MB-231 breast
  TGI: 8.26 µM

## O=Cc1c[nH]c2ccc(-c3csc4ccccc34)cc12
SK-MEL-28 melanoma
  GI50: 5.49 µM
  TGI: > 100 µM
OVCAR-3 ovarian
  GI50: 2.01 µM
  TGI: 5.03 µM
K-562 leukemia
  GI50: 1.69 µM
  TGI: > 100 µM
MOLT-4 leukemia
  GI50: 3.1 µM
  TGI: 19.1 µM
NCI/ADR-RES ovarian
  GI50: 4.09 µM
  TGI: > 100 µM
UO-31 renal
  GI50: 8.04 µM
  TGI: > 100 µM
CAKI-1 renal
  GI50: 1.93 µM
  TGI: > 100 µM
MDA-MB-231 breast
  GI50: 6.28 µM
  TGI: > 100 µM

## COc1cc(-c2nccc3[nH]c(-c4cccc5[nH]ccc45)nc23)cc(OC)c1OC
SK-MEL-28 melanoma
  GI50: 0.0347 µM
  TGI: 15.3 µM
OVCAR-3 ovarian
  GI50: < 0.01 µM
  TGI: 11 µM
MOLT-4 leukemia
  GI50: < 0.01 µM
  TGI: 13.2 µM
NCI/ADR-RES ovarian
  GI50: < 0.01 µM
  TGI: 18.1 µM
UO-31 renal
  GI50: 0.124 µM
  TGI: 16.2 µM
CAKI-1 renal
  GI50: < 0.01 µM
  TGI: 14.6 µM
MDA-MB-231 breast
  GI50: < 0.01 µM
  TGI: 17.1 µM

## NS(=O)(=O)c1cccc(-c2cc3ccncc3cc2OCc2ccccc2)c1
SK-MEL-28 melanoma
  GI50: 5.85 µM
  TGI: > 25 µM
OVCAR-3 ovarian
  GI50: 10.9 µM
  TGI: > 25 µM
K-562 leukemia
  GI50: 6.61 µM
  TGI: > 25 µM
MOLT-4 leukemia
  GI50: 8.44 µM
  TGI: > 25 µM
NCI/ADR-RES ovarian
  GI50: 11.2 µM
  TGI: > 25 µM
UO-31 renal
  GI50: 5.76 µM
  TGI: > 21.4 µM
CAKI-1 renal
  GI50: 10.6 µM
  TGI: > 25 µM
MDA-MB-231 breast
  GI50: 7.37 µM
  TGI: > 23.9 µM

## O=[N+]([O-])c1ccc(Oc2cccc(C(F)(F)F)c2)c([N+](=O)[O-])c1
SK-MEL-28 melanoma
  GI50: 6.47 µM
  TGI: 19.9 µM
OVCAR-3 ovarian
  GI50: 3.19 µM
  TGI: 9.21 µM
K-562 leukemia
  GI50: 0.303 µM
  TGI: 9.59 µM
MOLT-4 leukemia
  GI50: 0.344 µM
  TGI: 2.92 µM
NCI/ADR-RES ovarian
  GI50: 3.04 µM
  TGI: 12.1 µM
UO-31 renal
  GI50: 3.15 µM
  TGI: 13.8 µM
CAKI-1 renal
  GI50: 3.08 µM
  TGI: 21.5 µM
MDA-MB-231 breast
  GI50: 3.17 µM
  TGI: 10.2 µM

## O=C(O)CC1C(=O)OC2C3COC(=O)c4cc(O)c(O)c(O)c4-c4c(cc(O)c(O)c4O)C(=O)OC2C(OC(=O)c2cc(O)c(O)c4c2C1C(O)C(=O)O4)C(OC(=O)c1cc(O)c(O)c(O)c1)O3 (centres undefined)
SK-MEL-28 melanoma
  TGI: > 100 µM
OVCAR-3 ovarian
  TGI: 72.8 µM
K-562 leukemia
  TGI: > 100 µM
MOLT-4 leukemia
  TGI: 95 µM
NCI/ADR-RES ovarian
  TGI: 46.9 µM
UO-31 renal
  TGI: > 100 µM
CAKI-1 renal
  TGI: 42.9 µM
MDA-MB-231 breast
  TGI: 78.6 µM

## COc1cc(C2CC(=O)c3c(C)nn(-c4nc5ccccc5[nH]4)c3C2)cc(OC)c1OC (centres undefined)
SK-MEL-28 melanoma
  GI50: > 100 µM
  TGI: > 100 µM
NCI/ADR-RES ovarian
  GI50: > 100 µM
  TGI: > 100 µM
CAKI-1 renal
  GI50: > 100 µM
  TGI: > 100 µM

## O=C(CCCCCNC1=CC(=O)c2ccccc2C1=O)NCCC[Te]c1ccccc1
SK-MEL-28 melanoma
  GI50: 1.21 µM
  TGI: 3.34 µM
OVCAR-3 ovarian
  GI50: 0.676 µM
  TGI: 2.22 µM
K-562 leukemia
  GI50: 0.72 µM
  TGI: 3.83 µM
MOLT-4 leukemia
  GI50: 0.258 µM
  TGI: 0.746 µM
NCI/ADR-RES ovarian
  GI50: 0.425 µM
  TGI: 4.62 µM
UO-31 renal
  GI50: 0.311 µM
  TGI: 1.3 µM
CAKI-1 renal
  GI50: 1.7 µM
  TGI: 3.93 µM
MDA-MB-231 breast
  GI50: 0.236 µM
  TGI: 0.606 µM

## C[C@@H](Oc1cc(-c2cnn(C3CC4(CNC4)C3)c2)cnc1N)c1c(Cl)ccc(F)c1Cl
SK-MEL-28 melanoma
  GI50: 1.74 µM
  TGI: 4 µM
OVCAR-3 ovarian
  GI50: 9.94 µM
  TGI: 22.1 µM
K-562 leukemia
  GI50: 0.349 µM
  TGI: 5.43 µM
MOLT-4 leukemia
  GI50: 1.03 µM
  TGI: 7.27 µM
NCI/ADR-RES ovarian
  GI50: 14.9 µM
  TGI: 31 µM
UO-31 renal
  GI50: 4.96 µM
  TGI: 18.3 µM
CAKI-1 renal
  GI50: 7.58 µM
  TGI: 21.4 µM
MDA-MB-231 breast
  GI50: 2.23 µM
  TGI: 14.4 µM

## COc1ccc(C2=NNC(c3cc(Cc4ccc(O)c(C5CC(c6ccc(OC)cc6)=NN5)c4)ccc3O)C2)cc1 (centres undefined)
SK-MEL-28 melanoma
  GI50: 10.2 µM
  TGI: 34.1 µM
OVCAR-3 ovarian
  GI50: 18.8 µM
  TGI: > 100 µM
K-562 leukemia
  GI50: 7.74 µM
  TGI: > 100 µM
MOLT-4 leukemia
  GI50: 17.8 µM
  TGI: > 100 µM
NCI/ADR-RES ovarian
  GI50: 7.39 µM
  TGI: > 100 µM
UO-31 renal
  GI50: 4.29 µM
  TGI: > 100 µM
CAKI-1 renal
  GI50: 30.2 µM
  TGI: > 100 µM
MDA-MB-231 breast
  GI50: 14.3 µM
  TGI: 83.1 µM

## O=C(N/N=C/c1ccncc1)c1ccc(C(F)(F)F)nc1Nc1cccc(C(F)(F)F)c1
SK-MEL-28 melanoma
  GI50: 3.48 µM
  TGI: 14.2 µM
OVCAR-3 ovarian
  GI50: 2.65 µM
  TGI: 7.74 µM
K-562 leukemia
  GI50: 2.69 µM
  TGI: 11.8 µM
MOLT-4 leukemia
  GI50: 2.53 µM
  TGI: 9.1 µM
NCI/ADR-RES ovarian
  GI50: 2.67 µM
  TGI: 9.22 µM
UO-31 renal
  GI50: 2.49 µM
  TGI: 10.2 µM
CAKI-1 renal
  GI50: 1.48 µM
  TGI: 4.97 µM
MDA-MB-231 breast
  GI50: 1.81 µM
  TGI: 9.43 µM

## Nc1cccc2c1CN(C1CCC(=O)NC1=O)C2=O (centres undefined)
SK-MEL-28 melanoma
  GI50: > 100 µM
  TGI: > 100 µM
OVCAR-3 ovarian
  GI50: > 100 µM
  TGI: > 100 µM
K-562 leukemia
  GI50: > 100 µM
  TGI: > 100 µM
MOLT-4 leukemia
  GI50: > 100 µM
  TGI: > 100 µM
NCI/ADR-RES ovarian
  GI50: > 100 µM
  TGI: > 100 µM
UO-31 renal
  GI50: > 100 µM
  TGI: > 100 µM
CAKI-1 renal
  GI50: > 100 µM
  TGI: > 100 µM
MDA-MB-231 breast
  GI50: > 100 µM
  TGI: > 100 µM
